Measurements taken from patent publication US20210122780A1, “COMPOSITIONS FOR THE PREVENTION AND TREATMENT OF PARKINSON'S DISEASE” (Metselex, Inc., priority 2018, published 2021).
Entries after “also recorded” stand apart in the source; their conditions may differ. Like-named read-outs stand apart in the source and are kept apart here.

Assays:
[1] = Aqueous solubility of prodrug salts; details: water
[2] = format: physicochemical; details: for percent starting material remaining: after one week at rt in D2O solution; for stability on cold storage: stored in a freezer / cold
Procedure: Measurement of chemical stability of phosphorylated compounds. 4.0 mg of prodrug (19b, 19c, or 19d) were dissolved in 1.0 mL D2O. A sealed capillary tube containing phenylphosphonic acid dissolved in D2O was added as a standard. At time=0, a ^1H NMR spectrum was obtained and the proton signal at […]5.51 was integrated (It=0) relative to the aromatic signals from phenylphosphonic acid. After 7 days at rt, a new NMR spectrum was taken and the proton signal at δ 5.51 was integrated again (It=7). The percent starting material remaining was It=7/It=0×100. Each experiment was repeated three times. Chemical stability results obtained either by measuring the disappearance of starting material relative to the internal standard by ^31P NMR or by using inverse-gated decoupled phosphorus NMR and integrating starting material and product were very similar to the numbers obtained using ^1H NMR. For 19e, 4.0 mg 19b was dissolved in D2O and an additional equivalent of Tris added (the stoichiometry was confirmed by ^1H NMR) and the experiment conducted as above.

SH-SY5Y cells [3] = assay: MTT cell viability, SNP-induced cytotoxicity; details: for impact on UDCA-mediated protection against SNP-induced cytotoxicity: inhibitor 1 h, UDCA 200 μM 1 h, SNP 1 mM 24 h
Procedure: (§3) Human dopaminergic neuronal cell line, SH-SY5Y, was cultured in DMEM/F12 medium supplemented with 10% FBS (v/v), penicillin (100 U/m)-streptomycin (100 μg/ml) in 5% CO2 at 37° C. […] Usually, the culture medium was changed to DMEM/F12 medium with 0.5% FBS before any treatment to reduce the serum effect. In order to prevent the direct interaction between the treated chemicals, the culture medium was changed to fresh low-serum medium at the ent of pretreatment. UDCA was dissolved in ethanol as a 100× stock solution and diluted to the desired final concentrations. To estimate cell viability, 3-(4,5-dimetnylthiazol-2-yl)-2,5-diphenyltetrazolium bromide (MTT) reduction assay was performed. After cells were treated ad culture medium was removed, MTT solution (50 μg, 1 mg/ml in phosphate buffered saline, PBS) was added to each well in 96-well plate and incubated for 4 h at 37° C. The medium was carefully removed, 100 μl DMSO added to each well, and the plate agitated on an orbital shaker for 15 min to dissolve the formazan. The absorbance was measured at 540 nm using a microplate reader (SepctraMax M2, Molecular Devices).

SH-SY5Y cells [4] = test system: SH-SY5Y cells
Procedure: as §3

[5] = Stability in tris glycine buffer before AP addition (31P NMR); format: physicochemical; details: 0.100 M tris glycine buffer, 1.0 mM ZnCl2, 1.0 mM MgCl2, 1 h
Procedure: (§1) Compound 19d (10.0 mg, 0.016 mmol) or compound 3 (8.7 mg, 0.016 mmol) were dissolved in 0.6 mL of a 0.100 M tris glycine buffer solution containing 1.0 mM ZnCl2 and 1.0 mM MgCl2. […] 50 μL of the previously prepared AP stock solution was further diluted by addition to 0.950 mL of a 0.100 M tris glycine buffer containing 1.0 mM ZnCl2 and 1.0 mM MgCl2. 10.0 μL of this diluted AP solution was added to the prodrug solution by syringe. A series of 42 inverse-gated decoupled ^31P NMR's were taken (24 scans each, approximately one minute acquisition time). Conversion (%) was determined from the relative integration of the starting material and product peaks, NMR time stamps were used to determine time. Each experiment was repeated three times.

mitochondrial membrane = assay: Bax-induced alterations of mitochondrial membrane (FIG. 1, 2)
[6] = format: physicochemical; details: after one day at rt
Procedure: Chemical stability in pH 7.4 tris-buffered saline. 4.0 mg of prodrug 19d was dissolved in 0.9 mL H2O. To this solution was added 0.1 mL of tris-buffered saline (BM-300 from Boston BioProducts), containing tris (250 mM), KCl (27 mM), and NaCl (1.37 M). A sealed capillary tube containing phenylphosphonic acid dissolved in D2O was added as a standard. Chemical stability results were obtained by measuring the disappearance of starting material relative to the internal standard by ^31P NMR. The experiment was repeated three times. The standard deviation was ±3%.

[7] = test system: Alkaline phosphatase from bovine intestinal mucosa; assay: Alkaline phosphatase activation of prodrugs (31P NMR); format: biochemical; details: in vitro, FIG. 5
Procedure: Alkaline phosphatase activation of prodrugs 3 and 19d. Alkaline phosphatase from bovine intestinal mucosa (Sigma-Aldrich, P5521-2KU) was dissolved in 2.0 mL of a 0.100 M sodium glycine buffer containing 1.0 mM ZnCl2 and 1.0 mM MgCl2. This stock solution was stored at 4° C. between uses.
as §1

Bcl-2, Bax, cytochrome c = assay: Immunoblot analysis of Bcl-2, Bax, cytochrome c; format: cell-based, human
Procedure: Whole cell proteins were extracted using RIPA buffer (PBS, 1% NP-40, 0.5% Na deoxycholate, 0.1% SDS, 0.1 mg/ml PMSF, 30 mg/ml aprotinin, 1 mM Na3VO4). Cells were washed twice with PBS, lysed with RIPA buffer for 30 min on ice, and then centrifuged at 14,000×g for 10 min at 4° C. The supernatants were used as the total cell lysates. In some experiments, mitochondrial fraction was prepared from SH-Sy5Y cells using mitochondrial/cytosolic fraction kit (Biovision, Inc., Mountain View) according to the manufacturer's protocol. Protein concentration was determined by BCA protein assay kit (BioRad, Hercules, Calif.) using bovine serum albumin as a standard. […] The membrane was flocked in fresh blocking buffer (5% nonfat dry milk in Tris-buffered saline, pH 7.4, and containing 0.1% Tween 20) for 2 h at room temperature and rinsed in TBST buffer (0.1% Tween 20 in Tris-buffered saline, pH 7.4). The membrane was incubated at 4° C. with the following primary antibodies at dilutions of 1/1000: Bax, cytochrome c, Cox-4 or 1/4000: Bcl-2, actin. After three times washing with TBST buffer, membranes were incubated with horse radish peroxidase (HRP)-conjugated secondary antibodies (1:2000 dilutions) for 2 h at room temperature. Subsequently, the membrane was washed in TBST and the immunoreactive bands were detected by ECL chemiluminescence kit (GE Healthcare, USA). Protein bands were quantified by densitometric analysis.

SH-SY5Y cells [8] = assay: Total ROS production (H2DCFDA); format: cell-based, human; details: 1 mM SNP
Procedure: (§2) After washing with Hank's balanced salt solution (HBSS), cells were incubated with 20 μM H2DCFDA or 50 μM DHR at 37° C. for 30 min, and then rinsed with HBSS. The fluorescence intensity was measured using an automatic fluorescence microplate reader (SpectraMax M2, Molecular Devices) at an excitation wavelength of 485 nm and an emission of 535 nm. The values were expressed as a percentage of fluorescence intensity to the untreated control group. The production of NO was determined by measuring nitrite, a stable oxidation product of NO in the culture medium. […] After a 10-min reaction, the absorbance at 550 nm was measured in a microplate reader (VersaMax, Molecular Devices). Sodium nitrite (NaNO2) was used as a standard to calculate nitrite concentrate and the values were expressed in micromoles.

SH-SY5Y cells [9] = assay: NO production (Griess reagent, nitrite); format: cell-based, human; details: SNP 24 h
Procedure: as §2

SH-SY5Y cells [10] = assay: Nuclear staining (Hoechst 33342/PI) for apoptosis and necrosis; format: cell-based, human; details: pretreatment prior to SNP 1 mM 24 h
Procedure: For the fluorescent detection of apoptotic and necrotic cells, nuclear staining with Hoechst dye 33342 and propidium iodide (PI) was performed. SH-SY5Y cells were exposed to SNP (1 mM) for 24 h with or without pretreatment with UDCA or YS. After fixation with 1% paraformaldehyde (PBS) for 30 min at room temperature, cells were washed with PBS and then stained with Hoechst 33342 (10 μM) for 10 min. Cells were washed with PBS and further stained with PI (10 μM) for 10 min. Stained cells were washed with PBS and observed under a fluorescent microscopy. The apoptotic cells were determined as bright condensed and fragmented nuclei. PI positive cells stained with pink to red color were counted as necrotic cells.

Primary rat hepatocytes = assay: Microarray gene expression profiling (Affymetrix Rat Expression Array 230A); format: cell-based; details: 100 μM UDCA, 24 h
Procedure: We determined the global profile of genes regulated by UDCA by using Affymetrix GeneChip® Rat Expression Array 230A, consisting of approximately 16,000 transcripts and variants. cRNA prepared from vehicle-treated cells was used for comparative analysis. The relative levels of gene expression after 24 h treatment of hepatocytes with 100 μM UDCA were compared by plotting the average difference between cells, and determining the fold change in gene expression. […] We also assessed the specificity and sensitivity of the microarray analysis. Hierarchical clustering was performed using specific gene subsets.

SH-SY5Y cells [11] = assay: Mitochondrial membrane potential (JC-1); format: cell-based, human
Procedure: Anaspec Inc.). JC-1 preferentially accumulates in mitochondria as red aggregates in normal conditions but it exists as green monomers in the cytosol when MMP collapsed during apoptosis. The ratio of red/green fluorescence correlates with MMP. […] Next, 5 μg/ml JC-1 was added and incubated at 37° C. for 15 min in dark. After wash three times with PBS, MMP was measured at 535/590 nm (Ex/Em) for red fluorescence and 485/535 (Ex/Em) for green fluorescence using a fluorescence multimode microplate reader (Infinite 200; Tecan). Results were calculated as the ratio of red-to-green fluorescence and the values were expressed as the percentage over control.

## CC(CCC(=O)OCOP(=O)(O)O)C1CCC2C3C(O)CC4CC(O)CCC4(C)C3CCC12C (stereo not shown) [Compound 19b, ursodeoxycholic acid phosphonooxymethoxy ester]
[1]
  aqueous solubility, rapidly dissolving at all concentrations tested: ≥ 20 mg/mL
[2]
  percent starting material remaining: 36%
  stability on cold storage: stable for extended periods of time when stored in a freezer

## COc1ccc2c(c1)c(C1=C(c3c[nH]c4ccccc34)C(=O)NC1=O)cn2CCCN(C)C [Go6983]
SH-SY5Y cells [3]
  impact on UDCA-mediated protection against SNP-induced cytotoxicity: did not have significant impact
SH-SY5Y cells [4]
  cell viability, inhibitor alone: had no effects on cell viability

## C[C@H](CCC(=O)[O-])[C@H]1CC[C@H]2[C@@H]3[C@@H](O)C[C@@H]4C[C@H](OP(=O)([O-])O)CC[C@]4(C)[C@H]3CC[C@]12C.[Na+].[Na+] [Compound 3, 3-(Phosphonatooxy)-ursodeoxycholic acid sodium salt]
[5]
  decomposition by 31P NMR in buffer: Neither compound showed decomposition

## C[C@H](CCC(=O)NCCS(=O)(=O)O)[C@H]1CC[C@H]2[C@@H]3[C@@H](O)C[C@@H]4C[C@H](O)CC[C@]4(C)[C@H]3CC[C@]12C [TUDCA, tauroursodeoxycholic acid]
Mitochondrial membrane; FIG. 1
  Bax-induced alterations in mitochondrial membrane polarity: prevents
Mitochondrial membrane; FIG. 2
  Bax-induced alterations in mitochondrial membrane protein order: prevents

## CC(CCC(=O)OCOP(=O)(O)O)C1CCC2C3C(O)CC4CC(O)CCC4(C)C3CCC12C (stereo not shown) [Compound 19d, ursodeoxycholic acid phosphonooxymethoxy ester]
[5]
  decomposition by 31P NMR in buffer: Neither compound showed decomposition
[1]
  aqueous solubility, rapidly dissolving at all concentrations tested: > 20 mg/mL
[6]
  percent remaining in pH 7.4 tris buffer: 81%
[2]
  percent starting material remaining: 88%
[2]; solution, ambient temperature
  chemical stability in solution: decomposed at a much slower rate
[2]; listed as mono-Tris salt of 19
  stability on cold storage: stable for extended periods when stored cold
[7]
  rate of alkaline phosphatase catalyzed release of UDCA: more rapidly released

## C[C@H](CCC(=O)O)[C@H]1CC[C@H]2[C@@H]3[C@@H](O)C[C@@H]4C[C@H](O)CC[C@]4(C)[C@H]3CC[C@]12C [UDCA, ursodeoxycholic acid]
SH-SY5Y cells [3]; 24 h at doses of 50-200 μM, no SNP
  cell viability, substance alone: no obvious change in the viability
SH-SY5Y cells [3]; pretreatment 1 h, then 1 mM SNP 24 h
  SNP-induced loss of cell viability / cytotoxicity: prevented; also recorded: significantly attenuated
Bcl-2, Bax, cytochrome c; UDCA per se
  ratio of Bcl-2/Bax: 2.52±0.16 fold of control
Bcl-2, Bax, cytochrome c; pretreatment with UDCA prior to SNP treatment
  ratio of Bcl-2/Bax: 2.21±0.09 fold of control
Bcl-2, Bax, cytochrome c; pretreatment with UDCA, SNP 1 mM
  cytochrome c release from the mitochondria into the cytosol: 1.41±0.06 fold of control
SH-SY5Y cells [8]; 50 μM pretreatment
  ROS generation, % of SNP-treated group: 79.68%
SH-SY5Y cells [8]; 100 μM pretreatment
  ROS generation, % of SNP-treated group: 72.59%
SH-SY5Y cells [8]; 200 μM pretreatment
  ROS generation, % of SNP-treated group: 58.09%
SH-SY5Y cells [9]; 50 μM pretreatment
  NO production compared with the group treated with SNP alone: 91.44%
SH-SY5Y cells [9]; 100 μM pretreatment
  NO production compared with the group treated with SNP alone: 82.88%
SH-SY5Y cells [9]; 200 μM pretreatment
  NO production compared with the group treated with SNP alone: 77.26%
SH-SY5Y cells [10]
  apoptotic rate: 8.45±2.01%
Primary rat hepatocytes
  altered genes fulfilling the filtering criteria: 96 genes
  genes down-regulated: 68 genes
  genes up-regulated: 28 genes
  genes with alterations in expression, greater than 1.5-fold change: Approximately 441 genes
  share of genes with alterations in expression: ~2.76%
SH-SY5Y cells [11]; Homo sapiens, SH-SY5Y, 50 μM pretreatment, 1 mM SNP 12 h, read-out: MMP, % of control group
  activity at 50 µM: 71%
SH-SY5Y cells [11]; Homo sapiens, SH-SY5Y, 100 μM pretreatment, 1 mM SNP 12 h, read-out: MMP, % of control group
  activity at 100 µM: 88%
SH-SY5Y cells [11]; Homo sapiens, SH-SY5Y, 200 μM pretreatment, 1 mM SNP 12 h, read-out: MMP, % of control group
  activity at 200 µM: 87%
SH-SY5Y cells [11]; no SNP, FIG. 4B
  MMP, substance alone: did not show any alterations in MMP

## O=c1cc(N2CCOCC2)oc2c(-c3ccccc3)cccc12 [LY294002]
SH-SY5Y cells [3]
  impact on UDCA-mediated protection against SNP-induced cytotoxicity: reversed

## C[C@H](CCC(=O)[O-])[C@H]1CC[C@H]2[C@@H]3[C@@H](OCOP(=O)(O)O)C[C@@H]4C[C@H](O)CC[C@]4(C)[C@H]3CC[C@]12C.C[C@H](CCC(=O)[O-])[C@H]1CC[C@H]2[C@@H]3[C@@H](OCOP(=O)(O)O)C[C@@H]4C[C@H](O)CC[C@]4(C)[C@H]3CC[C@]12C.[Na+].[Na+] [Compound 13b, 7-(Phosphonooxymethoxy)-ursodeoxycholic acid sodium salt]
[1]
  aqueous solubility, rapidly dissolving at all concentrations tested: ≥ 10 mg/mL
[2]; D2O, overnight
  stability in D2O solution overnight: a significant portion of the material decomposed

## CC(CCC(=O)OCOP(=O)(O)O)C1CCC2C3C(O)CC4CC(O)CCC4(C)C3CCC12C (stereo not shown) [Compound 19c, ursodeoxycholic acid phosphonooxymethoxy ester]
[2]
  percent starting material remaining: 34%
